Assay results reported in patent publication US20250129023A1, “[…]” (Reunion Neuroscience, Inc., priority 2020, published 2025).
Where a name gives a salt, the structure may show the parent alone.

What was measured:
[1] = Pharmacokinetics and subjective effects in human volunteers; assay type: in vivo; conditions: standardized questionnaires
Protocol: The compound from example 6 (N,N diisopropyltryptamine-4-glutarate) is administered to human volunteers by subcutaneous injection of a sterile solution (1 mg/ml) at a dosage of 0.1-0.6 mg/kg. Blood samples are taken at 5, 15, 30, 45, 60, 120, 240 and 480 min and 24 h. Samples are analyzed by LCMS for drug and prodrug. Subjective effects are measured using standardized questionnaires.
The compound from example 2 (4-hemisuccinate of 4-OH-DiPT) is administered to human volunteers by oral ingestion of a tablet containing 50 mg of the prodrug. Blood samples are taken at 5, 15, 30, 45, 60, 120, 240 and 480 min and 24 h. Samples are analyzed by LCMS for drug and prodrug. Subjective effects are measured using standardized questionnaires.

[2] = tested on: rats; experiment: Head Twitch Response (HTR) / Wet Dog Shakes by visual observation; assay type: in vivo; conditions: after injection of the compound from example 9, highest intensity at the Tmax of the PK profile
Protocol: In some cases, Head Twitch Response (HTR) or Wet Dog Shakes (WDS) were recorded by visual observation and counting of the relevant muscle twitches.

[3] = Solubility in water; assay type: physicochemical; conditions: HCl salt solid
Protocol: The structure was confirmed by NMR. Purity was determined by HPLC (>97%). The solid was resuspended in […] HCl-dioxane to form the HCl salt which was filtered, washed with ether and dried. Yield (>95%, purity >95%; DSC endotherm 174C). The solid could be dissolved in water up to 50 mg/ml and lyophilized to form a white “cake”.

[4] = tested on: human patient suffering depression; experiment: Use in treatment of a human patient suffering depression; assay type: in vivo; conditions: i.m. or s.c. injection (ca. 25 mg) or oral (ca. 50-200 mg)
Protocol: The compound of example 6 (N,N diisopropyltryptamine-4-glutarate) is administered by i.m. or s.c. injection (ca. 25 mg; 0.4-0.5 mg/kg) to a human patient suffering depression, or by oral administration (ca. 50-200 mg; 0.8-3.2 mg/kg) with tablets. In another example of use, the compound of example 6 (4-hemiglutarate of 4-OH-DiPT) is similarly administered. Prior to the dosing session, the patient is qualified for the experience by measurement of depression scores, screened for exclusions (e.g. history of psychoses, unfavorable heart condition, pregnancy) and finally, the patient is encouraged to formulate an intent for the dosing session. Dosing is performed in a quiet clinic setting with the patient resting comfortably in an inclined, but unrestrained, position to avoid falls. The patients' eyes are covered, and music is applied. The drug is administered. After 4 h, the patient reports no longer feeling the effects of the drug and is asked to sit up while under supervision. Feeling normal, the patient is allowed to stand (supervised) and feeling in control, is allowed to move around. One hour later, the patient is discharged. Later by 24 h, the patient returns to the clinic to meet with a psychotherapist to recount the session. The patient records a depression score via questionnaire and is again discharged. […]

[5] = Prodrug hydrolysis in mouse plasma at 37° C; assay type: in vitro ADME; conditions: 1.0 ug/mL
Protocol: (§1) Pooled mixed gender human plasma (2 ml), mouse plasma, rat plasma and dog plasma were equilibrated at 37° C. The compound of example 9 was added so as to achieve a concentration of 1.0 ug/mL. Aliquots (50 uL) of the mixture were withdrawn at timed intervals (0, 0.004, 0.5, 1, 2 and 4 hours) and quenched with 200 uL of methanol/acetonitrile (1:1). The samples were vortexed and stored at −80° C. until analysis. Assays were done in triplicate. Control samples were done in phosphate buffered saline (PBS, pH 7.4) and simulated gastric fluid (SGF, pH 2). Analysis of samples as performed by HPLC-MS to determine the amounts of prodrug and drug in each sample tested. Table 1 provides the mean concentrations of prodrug remaining at different time points of the experiment.

[6] = Prodrug hydrolysis in rat plasma at 37° C; assay type: in vitro ADME; conditions: 1.0 ug/mL
Protocol: as §1

[7] = Prodrug hydrolysis in dog plasma at 37° C; assay type: in vitro ADME; conditions: 1.0 ug/mL
Protocol: as §1

[8] = Prodrug hydrolysis in pooled mixed gender human plasma at 37° C; assay type: in vitro ADME; conditions: 1.0 ug/mL
Protocol: as §1

[9] = Control hydrolysis in simulated gastric fluid (SGF, pH 2); assay type: physicochemical
Protocol: as §1

[10] = Control hydrolysis in phosphate buffered saline (PBS); assay type: physicochemical; conditions: PBS (pH 7)
Protocol: as §1

[11] = Pharmacokinetics in rats (i.v. and s.c. injection, LCMS of drug and prodrug); assay type: in vivo; conditions: rodent, 1.4-2 mg/kg
Protocol: The compound from example 9 was administered to rats by injection (intravenous and subcutaneous) with a sterile solution (2 mg/ml) at a rate of 1.4-2 mg/kg. Blood samples were taken at 15, 30, 45, 60, 120, 240 min and 360 min and analyzed by LCMS for drug and prodrug. PK profile for the prodrug and active species were obtained and relative bioavailability was determined for each of the routes of administration.
Pharmacokinetics of 1.34 mg/ml 4-HO-DiPT HCl administered by intravenous or subcutaneous injection were performed in parallel under identical conditions as above. […] Immediately obvious is the increased variability with the active species when administered s.c. and intravenous administrations.

## CC(C)N(CCc1c[nH]c2cccc(OC(=O)CCC(=O)O)c12)C(C)C [Example 2, 4-hemisuccinate of 4-hydroxy-diisopropyltryptamine (4-OH-DiPT)]
[1]; oral tablet 50 mg
  Subjective effects (intensity of psychoactivity): correlates with blood levels

## CC(C)N(CCc1c[nH]c2cccc(O)c12)C(C)C [Example 4-HO-DIPT, 4-hydroxy-N,N-diisopropyltryptamine]
[2]
  Intensity of the HTR versus plasma concentration: proportional to the plasma concentration

## CC(C)N(CCc1c[nH]c2cccc(OC(=O)CCCC(=O)O)c12)C(C)C [Example 6, N,N diisopropyltryptamine-4-glutarate]
[3]
  Solubility in water: up to 50 mg/ml
[1]; subcutaneous injection, 0.1-0.6 mg/kg
  Subjective effects (intensity of psychoactivity): correlates with blood levels
[4]
  Time after which the patient reports no longer feeling the effects of the drug: 4 h

## CC(C)N(CCc1c[nH]c2cccc(OC(=O)CCCC(=O)O)c12)C(C)C [Example 9, HCl salt of N,N diisopropyltryptamine-4-glutarate]
[5]; time 0 h
  Percentage of remaining prodrug: 100%
[5]; time 0.004 h
  Percentage of remaining prodrug: 0%
[5]; time 0.5 h
  Percentage of remaining prodrug: 0%
[5]; time 1 h
  Percentage of remaining prodrug: 0%
[5]; time 2 h
  Percentage of remaining prodrug: 0%
[5]; time 4 h
  Percentage of remaining prodrug: 0%
[6]; time 0 h
  Percentage of remaining prodrug: 100%
[6]; time 0.004 h
  Percentage of remaining prodrug: 0%
[6]; time 0.5 h
  Percentage of remaining prodrug: 0%
[6]; time 1 h
  Percentage of remaining prodrug: 0%
[6]; time 2 h
  Percentage of remaining prodrug: 0%
[6]; time 4 h
  Percentage of remaining prodrug: 0%
[7]; time 0 h
  Percentage of remaining prodrug: 100%
[7]; time 0.004 h
  Percentage of remaining prodrug: 100%
[7]; time 0.5 h
  Percentage of remaining prodrug: 87%
[7]; time 1 h
  Percentage of remaining prodrug: 79%
[7]; time 2 h
  Percentage of remaining prodrug: 64%
[7]; time 4 h
  Percentage of remaining prodrug: 39%
[8]; time 0 h
  Percentage of remaining prodrug: 100%
[8]; time 0.004 h
  Percentage of remaining prodrug: 100%
[8]; time 0.5 h
  Percentage of remaining prodrug: 3.0%
[8]; time 1 h
  Percentage of remaining prodrug: 0.23%
[8]; time 2 h
  Percentage of remaining prodrug: 0%
[8]; time 4 h
  Percentage of remaining prodrug: 0%
[9]; time 0 h
  Percentage of remaining prodrug: 100%
[9]; time 0.004 h
  Percentage of remaining prodrug: 100%
[9]; time 0.5 h
  Percentage of remaining prodrug: 100%
[9]; time 1 h
  Percentage of remaining prodrug: 100%
[9]; time 4 h
  Percentage of remaining prodrug: 101%
[10]; time 0 h
  Percentage of remaining prodrug: 100%
[10]; time 4 h
  Percentage of remaining prodrug: 93%
[11]
  Prodrug in blood samples after injection: prodrug was not observed
